Consider six compounds from ChEMBL document CHEMBL1124763, “Nucleoside conjugates. 11. Synthesis and antitumor activity of 1-beta-D-arabinofuranosylcytosine and cytidine conjugates of thioether lipids” (1990).

Assay [1] deals with Mus musculus. Kind of assay: Range of survival days for antitumor activity against Ip implanted L1210 / 0 lymphoid leukemia in mice at a dose of 200 mg/kg per day after treatment 1; range is 4-8. The class given is functional. Conditions: route intraperitoneal.
In assay [2] the test system is Mus musculus. Put plainly: Increase of life span was determined against Ip implanted L1210 / 0 lymphoid leukemia in mice at a dose of 200 mg/kg per day after treatment 1;8/7.5. Type of assay: functional. Conditions: L1210/0, ip, route intraperitoneal.
Assay [3] relates to Mus musculus. Put plainly: Survival time treated / survival time (T/C) for antitumor activity against Ip implanted L1210 / 0 lymphoid leukemia in mice at a dose of 200 mg/kg per day after treatment 1. Particulars: route intraperitoneal. The class given is functional.
Assay [4] relates to Mus musculus. Kind of assay: Range of survival days for antitumor activity against Ip implanted L1210 / ara-C lymphoid leukemia in mice at a dose of 300 mg/kg per day; range is 8-9. The class given is functional. Conditions: route intraperitoneal.
For assay [5], the system named is Mus musculus. Put plainly: Increase of life span was determined against Ip implanted L1210 / ara-C lymphoid leukemia in mice at a dose of 300 mg/kg per day. The class given is functional. Particulars: route intraperitoneal.
Assay [6] relates to Mus musculus. Kind of assay: Survival time treated/survival time tested (T/C) for antitumor activity against Ip implanted L1210 / ara-C lymphoid leukemia in mice at a dose of 300 mg/kg per day;8/9. Type of assay: functional. Particulars: route intraperitoneal.
Assay [7] deals with Mus musculus. Put plainly: Range of survival days for antitumor activity against Ip implanted L1210 / 0 lymphoid leukemia in mice at a dose of 100 mg/kg per day after treatment 1; range is 4-11. The class given is functional. Particulars: route intraperitoneal.
For assay [8], the system named is Mus musculus. Put plainly: Increase of life span was determined against Ip implanted L1210 / 0 lymphoid leukemia in mice at a dose of 200 mg/kg per day after treatment 1. Type of assay: functional. Particulars: L1210/0, ip, route intraperitoneal.
Assay [9] has as its system Mus musculus. Put plainly: Range of survival days for antitumor activity against Ip implanted L1210 / 0 lymphoid leukemia in mice at a dose of 200 mg/kg per day after treatment 1. The class given is functional. Conditions: route intraperitoneal.
Assay [10] relates to Mus musculus. Kind of assay: Survival time treated / survival time (T/C) for antitumor activity against Ip implanted L1210 / 0 lymphoid leukemia in mice at a dose of 200 mg/kg per day after treatment 1;6/7. The class given is functional. Conditions: route intraperitoneal.
Assay [11] has as its system Mus musculus. Put plainly: Survival time treated / survival time (T/C) for antitumor activity against Ip implanted L1210 / 0 lymphoid leukemia in mice at a dose of 100 mg/kg per day after treatment 1;9.5/7. The class given is functional. Conditions: route intraperitoneal.
Assay [12] has as its system Mus musculus. Kind of assay: Increase of life span was determined against Ip implanted L1210 / 0 lymphoid leukemia in mice at a dose of 100 mg/kg per day after treatment 1. Type of assay: functional. Conditions: L1210/0, ip, route intraperitoneal.
The subject of assay [13] is Mus musculus. Kind of assay: Increase of life span was determined against Ip implanted L1210 / ara-C (II) lymphoid leukemia in mice at a dose of 300 mg/kg per day. Particulars: route intraperitoneal. The class given is functional.
Assay [14] concerns Mus musculus. Kind of assay: Survival time treated/survival time tested (T/C) for antitumor activity against Ip implanted L1210 / ara-C (II) lymphoid leukemia in mice at a dose of 300 mg/kg per day;8/9. Conditions: route intraperitoneal. Type of assay: functional.
Assay [15] relates to Mus musculus. Put plainly: Median survival time for antitumor activity against Ip implanted L1210 / 0 lymphoid leukemia in mice at a dose of 300 mg/kg per day after treatment 1;7.5-8. Conditions: route intraperitoneal.
In assay [16] the test system is Mus musculus. Put plainly: Increase of life span was determined against Ip implanted L1210 / 0 lymphoid leukemia in mice at a dose of 300 mg/kg per day after treatment 1. The class given is functional. Particulars: L1210/0, ip, route intraperitoneal.
The subject of assay [17] is Mus musculus. Put plainly: Range of survival days for antitumor activity against Ip implanted L1210 / ara-C (II )lymphoid leukemia in mice at a dose of 300 mg/kg per day; range is 7-8. Type of assay: functional. Particulars: route intraperitoneal.
The test system of assay [18] is Mus musculus. Put plainly: Range of survival days for antitumor activity against Ip implanted L1210 / 0 lymphoid leukemia in mice at a dose of 300 mg/kg per day after treatment 1; range is 7-9. Particulars: route intraperitoneal. The class given is functional.
Assay [19] relates to Mus musculus. Put plainly: Survival time treated / survival time (T/C) for antitumor activity against Ip implanted L1210 / 0 lymphoid leukemia in mice at a dose of 100 mg/kg per day after treatment 1;9.5/8. Type of assay: functional. Conditions: route intraperitoneal.
Assay [20] concerns Mus musculus. Kind of assay: Range of survival days for antitumor activity against Ip implanted L1210 / 0 lymphoid leukemia in mice at a dose of 100 mg/kg per day after treatment 1; range is 9-10. Type of assay: functional. Conditions: route intraperitoneal.
Assay [21] concerns Mus musculus. Kind of assay: Survival time treated / survival time (T/C) for antitumor activity against Ip implanted L1210 / 0 lymphoid leukemia in mice at a dose of 200 mg/kg per day after treatment 1;7.5/8. Type of assay: functional. Particulars: route intraperitoneal.
Assay [22] has as its system Mus musculus. Put plainly: Range of survival days for antitumor activity against Ip implanted L1210 / 0 lymphoid leukemia in mice at a dose of 200 mg/kg per day after treatment 1; range is 4-12. The class given is functional. Particulars: route intraperitoneal.
Assay [23] concerns Mus musculus. Kind of assay: Increase of life span was determined against Ip implanted L1210 / 0 lymphoid leukemia in mice at a dose of 100 mg/kg per day after treatment 1-5. The class given is functional. Conditions: L1210/0, ip, route intraperitoneal.
Assay [24] has as its system Mus musculus. Kind of assay: Survival time treated / survival time (T/C) for antitumor activity against Ip implanted L1210 / 0 lymphoid leukemia in mice at a dose of 400 mg/kg per day after treatment 1;14/8. Particulars: route intraperitoneal. The class given is functional.
Assay [25] relates to Mus musculus. Kind of assay: Survival time treated / survival time (T/C) for antitumor activity against Ip implanted L1210 / 0 lymphoid leukemia in mice at a dose of 80 mg/kg per day after treatment 1-5;16/8. The class given is functional. Conditions: route intraperitoneal.
Assay [26] has as its system Mus musculus. Put plainly: Range of survival days for antitumor activity against Ip implanted L1210 / 0 lymphoid leukemia in mice at a dose of 100 mg/kg per day after treatment 1- 5; range is 15-32. The class given is functional. Particulars: route intraperitoneal.
Assay [27] concerns Mus musculus. Kind of assay: Increase of life span was determined against Ip implanted L1210 / 0 lymphoid leukemia in mice at a dose of 80 mg/kg per day after treatment 1-5. The class given is functional. Particulars: L1210/0, ip, route intraperitoneal.
Assay [28] deals with Mus musculus. Kind of assay: Survival time treated / survival time (T/C) for antitumor activity against Ip implanted L1210 / 0 lymphoid leukemia in mice at a dose of 100 mg/kg per day after treatment 1-5;21.5/8. Type of assay: functional. Conditions: route intraperitoneal.
Assay [29] has as its system Mus musculus. Kind of assay: Range of survival days for antitumor activity against Ip implanted L1210 / 0 lymphoid leukemia in mice at a dose of 400 mg/kg per day after treatment 1; range is 11-15. Conditions: route intraperitoneal. The class given is functional.
In assay [30] the test system is Mus musculus. Put plainly: Range of survival days for antitumor activity against Ip implanted L1210 / 0 lymphoid leukemia in mice at a dose of 80 mg/kg per day after treatment 1-5; range is 14-19. Type of assay: functional. Conditions: route intraperitoneal.
Assay [31] has as its system Mus musculus. Kind of assay: Increase of life span was determined against Ip implanted L1210 / 0 lymphoid leukemia in mice at a dose of 400 mg/kg per day after treatment 1. Particulars: L1210/0, ip, route intraperitoneal. The class given is functional.
Assay [32] relates to Mus musculus. Kind of assay: Survival time treated for antitumor activity against Ip implanted L1210 / 0 lymphoid leukemia in mice at a dose of 400 mg/kg per day after treatment 1;8/7. Conditions: route intraperitoneal.
The subject of assay [33] is Mus musculus. Put plainly: Range of survival days for antitumor activity against Ip implanted L1210 / 0 lymphoid leukemia in mice at a dose of 400 mg/kg per day after treatment 1; range is 8-10. Particulars: route intraperitoneal. The class given is functional.
The test system of assay [34] is Mus musculus. Put plainly: Range of survival days for antitumor activity against Ip implanted L1210 / 0 lymphoid leukemia in mice at a dose of 400 mg/kg per day after treatment 5. Type of assay: functional. Conditions: route intraperitoneal.
Assay [35] concerns Mus musculus. Put plainly: Increase of life span was determined against Ip implanted L1210 / 0 lymphoid leukemia in mice at a dose of 400 mg/kg per day after treatment 5. Type of assay: functional. Conditions: L1210/0, ip, route intraperitoneal.
Assay [36] concerns Mus musculus. Kind of assay: Increase of life span was determined against Ip implanted L1210 / 0 lymphoid leukemia in mice at a dose of 200 mg/kg per day after treatment 1-5. Conditions: L1210/0, ip, route intraperitoneal. The class given is functional.
The subject of assay [37] is Mus musculus. Put plainly: Survival time treated for antitumor activity against Ip implanted L1210 / 0 lymphoid leukemia in mice at a dose of 200 mg/kg per day after treatment 1-5;16/7. Particulars: route intraperitoneal.
For assay [38], the system named is Mus musculus. Kind of assay: Survival time treated for antitumor activity against Ip implanted L1210 / 0 lymphoid leukemia in mice at a dose of 400 mg/kg per day after treatment 5;10/7. Conditions: route intraperitoneal.
Assay [39] relates to Mus musculus. Kind of assay: Range of survival days for antitumor activity against Ip implanted L1210 / 0 lymphoid leukemia in mice at a dose of 200 mg/kg per day after treatment 1-5; range is 15-17. Conditions: route intraperitoneal. Type of assay: functional.

Structures are written as SMILES.

Take `CCCCCCCCCCCCCCCCCCSCC(COP(=O)(O)OP(=O)(O)OC[C@H]1O[C@@H](n2ccc(N)nc2=O)[C@H](O)[C@@H]1O)OC` (some centres not stated): the results for the “Range of survival days” value in the assay on Mus musculus [1] and in the assay with Mus musculus [4] were 4 and 8, respectively. For the same compound, the ILS at 200 mg/kg/day in the assay with Mus musculus [2] was 7%. The T/C in the assay with Mus musculus [3] and with Mus musculus [6] was 8 each time. Further, the ILS at 300 mg/kg/day with Mus musculus [5] was -11%.
For the compound `CCCCCCCCCCCCCCCCCCSCC(COP(=O)(O)OP(=O)(O)OC[C@H]1O[C@@H](n2ccc(N)nc2=O)[C@@H](O)[C@@H]1O)OC` (mixture of isomers), the “Range of survival days” value with Mus musculus [7] was found to be 4; in the assay on Mus musculus [9], 6. Further, the ILS at 200 mg/kg/day with Mus musculus [8] was -14%. The T/C in the assay with Mus musculus [10] is reported as 6; with Mus musculus [11], 9.5. For the same compound, the ILS at 100 mg/kg/day in the assay with Mus musculus [12] worked out at 36%.
In the case of `CCCCCCCCCCCCCCCCCCSCC(COP(=O)(O)OP(=O)(O)OC[C@H]1O[C@@H](n2ccc(N)nc2=O)[C@H](O)[C@@H]1O)OC(=O)CCCCCCCCCCCCCCC` (mixture of isomers), the results for the ILS at 300 mg/kg/day with Mus musculus [13] and in the assay with Mus musculus [16] were -11% and -6%, respectively. Besides, the median survival time in the assay on Mus musculus [14] amounted to 8 days; in the assay on Mus musculus [15] it was 7.5 days. Moreover, the “Range of survival days” value with Mus musculus [17] and in the assay with Mus musculus [18] was 7 each time.
With `CCCCCCCCCCCCCCCCCCSCC(COP(=O)(O)OP(=O)(O)OC[C@H]1OC(n2ccc(N)nc2=O)[C@@H](O)[C@@H]1O)OCC` (mixture of isomers), the T/C worked out at 9.5 in the assay with Mus musculus [19] and 7.5 in the assay on Mus musculus [21]. In addition, the figures for the “Range of survival days” value in the assay on Mus musculus [20] and in the assay with Mus musculus [22] were 9 and 4, respectively. Further, the ILS at 200 mg/kg/day in the assay on Mus musculus [8] was -6%. The ILS at 100 mg/kg/day in the assay on Mus musculus [12] was 19%.
On to `CCCCCCCCCCCCCCCCCCSCC(COP(=O)(O)OP(=O)(O)OC[C@H]1OC(n2ccc(N)nc2=O)[C@@H](O)[C@@H]1O)OCCCCCCCCCCCCCCCC` (mixture of isomers), for which the ILS at 100 mg/kg/day in the assay with Mus musculus [23] was found to be 169%. Moreover, the results for the T/C in the assay with Mus musculus [24], in the assay with Mus musculus [25] and with Mus musculus [28] were 14, 16 and 21.5, respectively. The “Range of survival days” value was 15 with Mus musculus [26], 11 in the assay with Mus musculus [29] and 14 in the assay on Mus musculus [30]. Also, the ILS at 80 mg/kg/day with Mus musculus [27] was found to be 100%. Further, the ILS at 400 mg/kg/day with Mus musculus [31] amounted to 75%.
Regarding `Nc1ccn([C@@H]2O[C@H](CO)[C@@H](O)[C@@H]2O)c(=O)n1` [CYTARABINE], the survival time with Mus musculus [32] was 8 days; in the assay on Mus musculus [37], 16 days; in the assay on Mus musculus [38], 10 days. Also, the “Range of survival days” value is 8 in the assay with Mus musculus [33], 10 in the assay with Mus musculus [34] and 15 in the assay with Mus musculus [39]. Besides, the values for the ILS at 400 mg/kg/day in the assay with Mus musculus [35] and in the assay on Mus musculus [31] were 43% and 14%, respectively. Moreover, the ILS at 200 mg/kg/day in the assay on Mus musculus [36] worked out at 129%.
